Laboratory results from patent US9040545B2, “Heterocyclyl pyrazolopyrimidine analogues as selective JAK inhibitors” (Cellzome Limited, priority 2010, dated 2015).

Biological target: T1, Aurora B (Homo sapiens, UniProt Q96GD4)
T1 construct: cell lysates from Jurkat cells (ATCC TIB-152) used; endogenous in cells; host or cells: Jurkat cells (ATCC TIB-152), treated with pervanadate
Test: Kinobeads assay, Aurora B
Assay type: binding
Conditions: for IC50: lysate of pervanadate-treated Jurkat cells, read-out: Inhibition values (IC50) Aur B

T1 sequence (Q96GD4 whole entry): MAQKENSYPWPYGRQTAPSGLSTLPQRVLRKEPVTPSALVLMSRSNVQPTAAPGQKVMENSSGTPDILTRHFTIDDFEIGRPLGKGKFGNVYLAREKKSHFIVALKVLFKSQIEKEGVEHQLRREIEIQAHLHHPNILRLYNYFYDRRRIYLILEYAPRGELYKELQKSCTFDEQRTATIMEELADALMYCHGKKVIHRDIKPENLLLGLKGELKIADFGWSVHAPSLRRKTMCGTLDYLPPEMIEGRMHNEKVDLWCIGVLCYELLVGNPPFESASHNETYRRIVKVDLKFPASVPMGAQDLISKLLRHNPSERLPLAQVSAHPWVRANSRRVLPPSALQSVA

Row | JAK3/AurB Fold Selectivity | IC50 [nM] | Structure (SMILES)
1 | 10-50 Fold | < 100 | O=C1COCCN1c1cc(F)cc(Cn2ncc3cnc(Nc4cnn(CCO)c4)nc32)c1F [Example 74, 4-(2,5-Difluoro-3-((6-((1-(2-hydroxyethyl)-1H-pyrazol-4-yl)amino)-1H-pyrazolo[3,4-d]pyrimidin-1-yl)methyl)phenyl)morpholin-3-one]
2 | 10-50 Fold | 100 to 1000 | Cn1cc(Nc2ncc3cnn(Cc4cc(F)cc(N5CCOCC5=O)c4F)c3n2)cn1 [Example 73, 4-(2,5-Difluoro-3-((6-((1-methyl-1H-pyrazol-4-yl)amino)-1H-pyrazolo[3,4-d]pyrimidin-1-yl)methyl)phenyl)morpholin-3-one]
3 | 10-50 Fold | 100 to 1000 | Fc1cc(N2CCOCC2)c(F)c(Cn2ncc3cnc(Nc4cn[nH]c4)nc32)c1F [Example 81, N-(1H-Pyrazol-4-yl)-1-(2,3,6-trifluoro-5-morpholinobenzyl)-1H-pyrazolo[3,4-d]pyrimidin-6-amine]
4 | >50 Fold | 100 to 1000 | OCCn1cc(Nc2ncc3cnn(Cc4cc(F)cc(N5CCOCC5)c4)c3n2)cn1 [Example 51, 2-(4-((1-(3-Fluoro-5-morpholinobenzyl)-1H-pyrazolo[3,4-d]pyrimidin-6-yl)amino)-1H-pyrazol-1-yl)ethanol]
5 | 3-10 Fold | < 100 | O=C1CNCCN1c1cc(F)cc(Cn2ncc3cnc(Nc4cnn(CCO)c4)nc32)c1 [Example 63, 1-(3-Fluoro-5-((6-((1-(2-hydroxyethyl)-1H-pyrazol-4-yl)amino)-1H-pyrazolo[3,4-d]pyrimidin-1-yl)methyl)phenyl)piperazin-2-one]
6 | >50 Fold | 1000 to 10000 | COC1CN(c2cccc(Cn3ncc4cnc(Nc5cnn(C)c5)nc43)c2)C1 [Example 65, 1-(3-(3-Methoxyazetidin-1-yl)benzyl)-N-(1-methyl-1H-pyrazol-4-yl)-1H-pyrazolo[3,4-d]pyrimidin-6-amine]
7 | 3-10 Fold | < 100 | OCCn1cc(Nc2ncc3cnn(Cc4c(F)ccc(N5CCOCC5)c4F)c3n2)cn1 [Example 82, 2-(4-((1-(2,6-Difluoro-3-morpholinobenzyl)-1H-pyrazolo[3,4-d]pyrimidin-6-yl)amino)-1H-pyrazol-1-yl)ethanol]
8 | 10-50 Fold | 100 to 1000 | O=C1COCCN1c1cc(F)cc(Cn2ncc3cnc(Nc4cnn(CCO)c4)nc32)c1 [Example 58, 4-(3-Fluoro-5-((6-((1-(2-hydroxyethyl)-1H-pyrazol-4-yl)amino)-1H-pyrazolo[3,4-d]pyrimidin-1-yl)methyl)phenyl)morpholin-3-one]
9 | 3-10 Fold | < 100 | CN(C)CCCn1cc(Nc2ncc3cnn(Cc4c(F)ccc(N5CCOCC5=O)c4F)c3n2)cn1 [Example 75, 4-(3-((6-((1-(3-(Dimethylamino)propyl)-1H-pyrazol-4-yl)amino)-1H-pyrazolo[3,4-d]pyrimidin-1-yl)methyl)-2,4-difluorophenyl)morpholin-3-one]
10 | >50 Fold | 1000 to 10000 | Cn1cc(Nc2ncc3cnn(Cc4cc(F)cc(N5CCOCC5)c4)c3n2)cn1 [Example 49, 1-(3-Fluoro-5-morpholinobenzyl)-N-(1-methyl-1H-pyrazol-4-yl)-1H-pyrazolo[3,4-d]pyrimidin-6-amine]
11 | >50 Fold | 1000 to 10000 | OCCn1cc(Nc2ncc3cnn(Cc4cc(N5CCOCC5)cc(F)c4F)c3n2)cn1 [Example 56, 2-(4-((1-(2,3-Difluoro-5-morpholinobenzyl)-1H-pyrazolo[3,4-d]pyrimidin-6-yl)amino)-1H-pyrazol-1-yl)ethanol]
12 | 10-50 Fold | 100 to 1000 | O=C1COCCN1c1cc(F)cc(Cn2ncc3cnc(Nc4cn[nH]c4)nc32)c1 [Example 84, 4-(3-((6-((1H-Pyrazol-4-yl)amino)-1H-pyrazolo[3,4-d]pyrimidin-1-yl)methyl)-5-fluorophenyl)morpholin-3-one]
13 | 3-10 Fold | 100 to 1000 | Cn1cc(Nc2ncc3cnn(Cc4c(F)ccc(N5CCNCC5=O)c4F)c3n2)cn1 [Example 76, 1-(2,4-Difluoro-3-((6-((1-methyl-1H-pyrazol-4-yl)amino)-1H-pyrazolo[3,4-d]pyrimidin-1-yl)methyl)phenyl)piperazin-2-one]
14 | 10-50 Fold | 100 to 1000 | OCCn1cc(Nc2ncc3cnn(Cc4c(F)c(F)cc(N5CCOCC5)c4F)c3n2)cn1 [Example 45, 2-(4-((1-(2,3,6-Trifluoro-5-morpholinobenzyl)-1H-pyrazolo[3,4-d]pyrimidin-6-yl)amino)-1H-pyrazol-1-yl)ethanol]
15 | 10-50 Fold | 100 to 1000 | OCCn1cc(Nc2ncc3cnn(Cc4cc(N5CCOCC5)ccc4F)c3n2)cn1 [Example 44, 2-(4-((1-(2-Fluoro-5-morpholinobenzyl)-1H-pyrazolo[3,4-d]pyrimidin-6-yl)amino)-1H-pyrazol-1-yl)ethanol]
16 | 10-50 Fold | 100 to 1000 | OCCn1cc(Nc2ncc3cnn(Cc4cccc(N5CCNCC5)c4)c3n2)cn1 [Example 47, 2-(4-((1-(3-(piperazin-1-yl)benzyl)-1H-pyrazolo[3,4-d]pyrimidin-6-yl)amino)-1H-pyrazol-1-yl)ethanol]
17 | >50 Fold | 1000 to 10000 | Cn1cc(Nc2ncc3cnn(Cc4cc(F)cc(C(=O)N5CCOCC5)c4)c3n2)cn1 [Example 79, (3-Fluoro-5-((6-((1-methyl-1H-pyrazol-4-yl)amino)-1H-pyrazolo[3,4-d]pyrimidin-1-yl)methyl)phenyl)(morpholino)methanone]
18 | 10-50 Fold | 100 to 1000 | Cn1cc(Nc2ncc3cnn(Cc4cc(F)cc(C(=O)N5CCNCC5)c4)c3n2)cn1 [Example 80, (3-Fluoro-5-((6-((1-methyl-1H-pyrazol-4-yl)amino)-1H-pyrazolo[3,4-d]pyrimidin-1-yl)methyl)phenyl)(piperazin-1-yl)methanone]
19 | 3-10 Fold | 100 to 1000 | COC1CCN(c2cccc(Cn3ncc4cnc(Nc5cnn(C)c5)nc43)c2)CC1 [Example 77, 1-(3-(4-Methoxypiperidin-1-yl)benzyl)-N-(1-methyl-1H-pyrazol-4-yl)-1H-pyrazolo[3,4-d]pyrimidin-6-amine]
20 | 10-50 Fold | 100 to 1000 | O=C1COCCN1c1cc(F)c(F)c(Cn2ncc3cnc(Nc4cnn(CCO)c4)nc32)c1 [Example 59, 4-(3,4-Difluoro-5-((6-((1-(2-hydroxyethyl)-1H-pyrazol-4-yl)amino)-1H-pyrazolo[3,4-d]pyrimidin-1-yl)methyl)phenyl)morpholin-3-one]
21 | >50 Fold | 1000 to 10000 | Cn1cc(Nc2ncc3cnn(Cc4cccc(C(=O)N5CCOCC5)c4F)c3n2)cn1 [Example 87, (2-Fluoro-3-((6-((1-methyl-1H-pyrazol-4-yl)amino)-1H-pyrazolo[3,4-d]pyrimidin-1-yl)methyl)phenyl)(morpholino)methanone]
22 | 10-50 Fold | 100 to 1000 | O=C1COCCN1c1cccc(Cn2ncc3cnc(Nc4cnn(CCO)c4)nc32)c1F [Example 46, 4-(2-Fluoro-3-((6-((1-(2-hydroxyethyl)-1H-pyrazol-4-yl)amino)-1H-pyrazolo[3,4-d]pyrimidin-1-yl)methyl)phenyl)morpholin-3-one]
23 | 10-50 Fold | 100 to 1000 | O=C1COCCN1c1cc(F)c(F)c(Cn2ncc3cnc(Nc4cnn(CCO)c4)nc32)c1F [Example 62, 4-(2,4,5-Trifluoro-3-((6-((1-(2-hydroxyethyl)-1H-pyrazol-4-yl)amino)-1H-pyrazolo[3,4-d]pyrimidin-1-yl)methyl)phenyl)morpholin-3-one]
24 | >50 Fold | 1000 to 10000 | Cn1cc(Nc2ncc3cnn(Cc4cc(F)cc(N5CCOCC5=O)c4)c3n2)cn1 [Example 52, 4-(3-Fluoro-5-((6-((1-methyl-1H-pyrazol-4-yl)amino)-1H-pyrazolo[3,4-d]pyrimidin-1-yl)methyl)phenyl)morpholin-3-one]
25 | 3-10 Fold | < 100 | Cn1cc(Nc2ncc3cnn(Cc4c(F)c(F)cc(N5CCNCC5)c4F)c3n2)cn1 [Example 66, N-(1-Methyl-1H-pyrazol-4-yl)-1-(2,3,6-trifluoro-5-(piperazin-1-yl)benzyl)-1H-pyrazolo[3,4-d]pyrimidin-6-amine]
26 | 10-50 Fold | 100 to 1000 | O=C1CNCCN1c1cccc(Cn2ncc3cnc(Nc4cnn(CCO)c4)nc32)c1F [Example 55, 1-(2-Fluoro-3-((6-((1-(2-hydroxyethyl)-1H-pyrazol-4-yl)amino)-1H-pyrazolo[3,4-d]pyrimidin-1-yl)methyl)phenyl)piperazin-2-one]
27 | >50 Fold | 100 to 1000 | CNC(=O)Cn1cc(Nc2ncc3cnn(Cc4cc(F)cc(N5CCOCC5=O)c4)c3n2)cn1 [Example 68, 2-(4-((1-(3-Fluoro-5-(3-oxomorpholino)benzyl)-1H-pyrazolo[3,4-d]pyrimidin-6-yl)amino)-1H-pyrazol-1-yl)-N-methylacetamide]
28 | 10-50 Fold | 100 to 1000 | Cn1cc(Nc2ncc3cnn(Cc4c(F)ccc(N5CCOCC5=O)c4F)c3n2)cn1 [Example 69, 4-(2,4-Difluoro-3-((6-((1-methyl-1H-pyrazol-4-yl)amino)-1H-pyrazolo[3,4-d]pyrimidin-1-yl)methyl)phenyl)morpholin-3-one]
29 | >50 Fold | 100 to 1000 | CN(C)CCCn1cc(Nc2ncc3cnn(Cc4cccc(N5CCOCC5=O)c4F)c3n2)cn1 [Example 50, 4-(3-((6-((1-(3-(Dimethylamino)propyl)-1H-pyrazol-4-yl)amino)-1H-pyrazolo[3,4-d]pyrimidin-1-yl)methyl)-2-fluorophenyl)morpholin-3-one]
30 | 3-10 Fold | < 100 | OCCn1cc(Nc2ncc3cnn(Cc4cc(N5CCNCC5)cc(F)c4F)c3n2)cn1 [Example 78, 2-(4-((1-(2,3-Difluoro-5-(piperazin-1-yl)benzyl)-1H-pyrazolo[3,4-d]pyrimidin-6-yl)amino)-1H-pyrazol-1-yl)ethanol]
